Here are results for 14 compounds from US20050234046A1 (Kalypsys, Inc., priority 2004, published 2005).

Broadly, the EC50 is the concentration at which the effect is half-maximal. Low readings indicate higher potency in that assay, high ones lower potency in that assay.

What all share (assay): Transient transfection (transactivation) assay in CV-1 cells, GAL4-PPAR chimera, luciferase reporter
Holding throughout (assay type): cell-based
In general terms: A reporter such as luciferase makes a cellular process visible.

In one assay the target is T1, PPAR delta (Homo sapiens, UniProt Q03181).
T1 construct: expressed in transfected cells; host or cells: CV-1 cells
T1 sequence (Q03181 211-439 limits assumed): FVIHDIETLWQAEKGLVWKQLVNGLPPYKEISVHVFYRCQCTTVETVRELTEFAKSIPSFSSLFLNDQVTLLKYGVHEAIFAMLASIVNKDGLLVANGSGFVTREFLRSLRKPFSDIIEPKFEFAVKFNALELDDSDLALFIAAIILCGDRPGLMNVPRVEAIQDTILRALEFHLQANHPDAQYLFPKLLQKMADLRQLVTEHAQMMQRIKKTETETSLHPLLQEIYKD

In a further assay the target is T2, PPAR gamma (Homo sapiens, UniProt P37231).
T2 construct: expressed in transfected cells; host or cells: CV-1 cells
T2 sequence (P37231 238-503 limits assumed): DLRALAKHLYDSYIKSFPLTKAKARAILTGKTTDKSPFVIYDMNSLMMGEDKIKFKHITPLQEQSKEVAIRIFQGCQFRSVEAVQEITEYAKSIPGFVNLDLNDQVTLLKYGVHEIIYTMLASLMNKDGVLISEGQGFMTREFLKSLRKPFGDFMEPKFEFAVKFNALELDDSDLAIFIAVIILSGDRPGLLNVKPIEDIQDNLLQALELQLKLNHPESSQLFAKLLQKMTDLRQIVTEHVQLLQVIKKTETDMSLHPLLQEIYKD

In the next assay the target is T3, PPAR alpha (Homo sapiens, UniProt Q07869).
T3 construct: expressed in transfected cells; host or cells: CV-1 cells
T3 sequence (Q07869 239-466 limits assumed): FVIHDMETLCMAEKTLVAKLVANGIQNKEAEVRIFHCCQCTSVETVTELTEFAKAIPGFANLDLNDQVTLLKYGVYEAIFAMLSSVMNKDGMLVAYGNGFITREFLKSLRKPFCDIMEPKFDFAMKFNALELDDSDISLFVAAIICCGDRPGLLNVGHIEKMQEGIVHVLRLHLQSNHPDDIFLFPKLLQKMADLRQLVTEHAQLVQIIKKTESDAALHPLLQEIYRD
In a few lines: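 GAL4 DNA-binding domain fused to PPAR ligand binding domain, co-transfected into CV-1 cells with a luciferase reporter carrying four or five GAL4 sites. Replated cells in phenol-red free DME with 5% delipidated calf serum were treated with compound or 1% DMSO for 20-24 hours; luciferase read for EC50 and efficacy.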

From the text for PPAR gamma: Compounds may be screened for functional potency in transient transfection assays in CV-1 cells or other cell types for their ability to activate the PPAR subtypes (transactivation assay). A previously established chimeric receptor system was utilized to allow comparison of the relative transcriptional activity of the receptor subtypes on the same synthetic response element and to prevent endogenous receptor activation from complicating the interpretation of results. […] The ligand binding domains for murine and human PPAR-alpha, PPAR-gamma, and PPAR-delta are each fused to the yeast transcription factor GAL4 DNA binding domain. CV-1 cells were transiently transfected with expression vectors for the respective PPAR chimera along with a reporter construct containing four or five copies of the GAL4 DNA binding site driving expression of luciferase. After 8-16 h, the cells are replated into multi-well assay plates and the media is exchanged to phenol-red free DME medium supplemented with 5% delipidated calf serum. 4 hours after replating, cells were treated with either compounds or 1% DMSO for 20-24 hours. Luciferase activity was then assayed with Britelite (Perkin Elmer) following the manufacturer's protocol and measured with either the Perkin Elmer Viewlux or Molecular Devices Acquest Xsee, for example, Kliewer, S. A., et. al. Cell 1995, 83, 813-819). Rosiglitazone is used as a positive control in the hPPAR-γ assay. Wy-14643 and GW7647 is used as a positive control in the hPPAR-α assay. GW501516 is used as the positive control in the hPPAR-δ assay.

For `C[C@@H]1CN(c2ccc(C(F)(F)F)cn2)C[C@H](C)N1S(=O)(=O)c1cccc(CC(=O)O)c1` [Example 220, {3-[2,6-Dimethyl-4-(5-trifluoromethyl-pyridin-2-yl)-piperazine-1-sulfonyl]-phenyl}-acetic acid], the values for the EC50 on PPAR delta, at PPAR gamma and on PPAR alpha were less than 5 µM, more than 100 µM and 5 to 100 µM, respectively.
Turning to `C[C@H]1CN(S(=O)(=O)c2cccc(CC(=O)O)c2)CCN1c1ccc(OC(F)(F)F)cc1` [Example 221, {3-[3-(s)-Methyl-4-(4-trifluoromethoxy-phenyl)-piperazine-1-sulfonyl]-phenyl}-acetic acid], the EC50 on PPAR delta was less than 5 µM; on PPAR gamma it was 5 to 100 µM; at PPAR alpha it was 5 to 100 µM.
Consider `Cc1cc(CC(=O)O)cc(S(=O)(=O)N2[C@H](C)CN(c3ccc(C(F)(F)F)c(F)c3)C[C@@H]2C)c1` [Example 222], for which the values for the EC50 at PPAR delta, on PPAR gamma and at PPAR alpha were less than 5 µM, more than 100 µM and 5 to 100 µM, respectively.
Regarding `Cc1cc(CC(=O)O)cc(S(=O)(=O)N2CCN(c3ccc(OC(F)(F)F)cc3)CC2)c1` [Example 223, {3-Methyl-5-[4-(4-trifluoromethoxy-phenyl)-piperazine-1-sulfonyl]-phenyl}-acetic acid], the EC50 at PPAR delta was less than 5 µM; at PPAR gamma, 5 to 100 µM; on PPAR alpha it was 5 to 100 µM.
On to `Cc1cc(CC(=O)O)cc(S(=O)(=O)N2CCN(c3ccc(OC(F)(F)F)cc3)[C@@H](C)C2)c1` [Example 224, {3-Methyl-5-[3-(s)-methyl-4-(4-trifluoromethoxy-phenyl)-piperazine-1-sulfonyl]-phenyl}-acetic acid], for which the concentration giving a half-maximal response (EC50) is less than 5 µM at PPAR delta, 5 to 100 µM at PPAR gamma and 5 to 100 µM on PPAR alpha.
Consider `Cc1cc(CC(=O)O)cc(S(=O)(=O)N2CCN(c3ccc(C(F)(F)F)cn3)CC2)c1` [Example 225], for which the EC50 at PPAR delta was less than 5 µM; at PPAR gamma it was less than 5 µM; at PPAR alpha, 5 to 100 µM.
With `C[C@H]1CN(c2ccc(OC(F)(F)F)cc2)CCN1S(=O)(=O)c1cccc(CC(=O)O)c1` [Example 226, {3-[2-(s)-Methyl-4-(4-trifluoromethoxy-phenyl)-piperazine-1-sulfonyl]-phenyl}-acetic acid], the half-maximal effective concentration (EC50) on PPAR delta is less than 5 µM; on PPAR gamma, 5 to 100 µM; on PPAR alpha, 5 to 100 µM.
On to `C[C@@H]1CN(S(=O)(=O)c2cccc(CC(=O)O)c2)C[C@H](C)N1c1ccc(C(F)(F)F)cn1` [Example 227, 2-(3-(-3,5-Dimethyl-4-(5-(trifluoromethyl)pyridine-2-yl)piperazin-1-ylsulfonyl)phenyl)acetic acid], for which the values for the EC50 at PPAR delta, at PPAR gamma and on PPAR alpha were less than 5 µM, less than 5 µM and 5 to 100 µM, respectively.
For the compound `Cc1cc(CC(=O)O)cc(S(=O)(=O)N2C[C@@H](C)N(c3ccc(C(F)(F)F)cn3)[C@@H](C)C2)c1` [Example 228, 2-(3-(-3,5-Dimethyl-4-(5-(trifluoromethyl)pyridine-2-yl)piperazin-1-ylsulfonyl)-5-methylphenyl)acetic acid], the EC50 was less than 5 µM on PPAR delta, less than 5 µM at PPAR gamma and 5 to 100 µM at PPAR alpha.
`Cc1cc(CC(=O)O)cc(S(=O)(=O)N2[C@H](C)CN(c3ccc(C(F)(F)F)cn3)C[C@@H]2C)c1` [Example 229, {3-[2,6-Dimethyl-4-(5-trifluoromethyl-pyridin-2-yl)-piperazine-1-sulfonyl]-5-methyl-phenyl}-acetic acid]: the figures for the EC50 at PPAR delta, at PPAR gamma and on PPAR alpha were less than 5 µM, more than 100 µM and more than 100 µM, respectively.
For `O=C(O)Cc1c(F)ccc(S(=O)(=O)N2CCN(c3ccc(C(F)(F)F)cn3)CC2)c1F` [Example 230, {2,6-Difluoro-3-[4-(5-trifluoromethyl-pyridin-2-yl)-piperazine-1-sulfonyl]-phenyl}-acetic acid], the EC50 on PPAR delta is less than 5 µM; on PPAR gamma, 5 to 100 µM; at PPAR alpha, 5 to 100 µM.
Consider `C[C@@H]1CN(c2ccc(C(F)(F)F)cn2)C[C@H](C)N1S(=O)(=O)c1ccc(F)c(CC(=O)O)c1F` [Example 231, {3-[2,6-Dimethyl-4-(5-trifluoromethyl-pyridin-2-yl)-piperazine-1-sulfonyl]-2,6-difluoro-phenyl}-acetic acid], for which the values for the EC50 at PPAR delta, on PPAR gamma and at PPAR alpha were 5 to 100 µM, more than 100 µM and more than 100 µM, respectively.
For `C[C@@H]1CN(c2ccc(OC(F)(F)F)cc2)C[C@H](C)N1S(=O)(=O)c1ccc(F)c(CC(=O)O)c1F` [Example 232, {3-[2,6-Dimethyl-4-(4-trifluoromethoxy-phenyl)-piperazine-1-sulfonyl]-2,6-difluoro-phenyl}-acetic acid], the figures for the EC50 at PPAR delta, at PPAR gamma and at PPAR alpha were less than 5 µM, more than 100 µM and more than 100 µM, respectively.
`Cc1cc(CC(=O)O)cc(S(=O)(=O)N2C3CCC2CN(c2ccc(OC(F)(F)F)cc2)C3)c1` [Example 233, {3-Methyl-5-[3-(4-trifluoromethoxy-phenyl)-3,8-diaza-bicyclo[3.2.1]octane-8-sulfonyl]-phenyl}-acetic acid]: the values for the EC50 at PPAR delta, on PPAR gamma and at PPAR alpha were less than 5 µM, 5 to 100 µM and 5 to 100 µM, respectively.
